The values below come from patent publication US20110269755A1, “COMPOSITIONS AND METHODS FOR TREATING VASCULAR, AUTOIMMUNE, AND INFLAMMATORY DISEASES” (Aspreva International Ltd., priority 2006, published 2011).

≈ marks a conversion by molar mass, not a printed value. Entries after “also recorded” stand apart in the source; their conditions may differ.

Data set [1] relates to allograft survival. Particulars: mice; cited from earlier work.
The subject of data set [2] is Ldlr−/− mice. Kind of data set: Serum/plasma lipid levels in Ldlr−/− mice on Western-type diet, MMF alone. It is filed as in vivo. From the text: (§1) Additional secondary endpoints examined were plasma levels of cholesterol, HDL cholesterol, triglycerides, and phospholipids.
In data set [3] the test system is Ldlr−/− mice. Nature of the data set: Atherosclerosis in Ldlr−/− mice on Western-type diet, plaque area at the aortic root, MMF alone. It is filed as in vivo. Particulars: for reduction of atherosclerosis (AS), percentage of aortic sinus occluded by plaque: 12 weeks.
Text: as §1

The conditions of data set [4]: following oral or intravenous administration; cited from earlier work.
The conditions of data set [5]: cited from earlier work.
The test system of data set [6] is antibody response to sheep red blood cells. Particulars: mice; cited from earlier work.
The test system of data set [7] is endothelial nitric oxide synthase (eNOS). Particulars: in vitro, cited from earlier work.

The solubility is how much of the substance goes into solution per volume. With `COc1c(C)c2c(c(O)c1C/C=C(\C)CCC(=O)OCCN1CCOCC1)C(=O)OC2` [MMF, morpholinoethyl E-6-(1,3-dihydro-4-hydroxy-6-methoxy-7-methyl-3-oxo-5-isobenzofuranyl)-4-methyl-4-hexenoate], the “effective dose for in vivo prolongation of allograft survival” value in data set [1] was “about 80 mg/kg/day”. In addition, the HDL cholesterol levels entry in data set [2] (Ldlr−/− mice) is “no effect”. The total cholesterol levels entry in data set [2] (Ldlr−/− mice) is reported as “no effect”. Besides, in data set [2] (male Ldlr−/− mice), the serum cholesterol levels entry was “did not lower”. Also, in data set [2] (male Ldlr−/− mice), the serum phospholipid levels result is given as “lower; also recorded: decreases”. Besides, the serum triglyceride levels entry in data set [2] (male Ldlr−/− mice) is “lower; also recorded: decreases”. Further, the “reduction of atherosclerosis (AS), percentage of aortic sinus occluded by plaque” value in data set [3] (MMF 6 mg/kg/day in diet, male Ldlr−/− mice) amounted to 18%; in data set [3] (MMF 15 mg/kg/day in diet, male Ldlr−/− mice), 30%; in data set [3] (MMF 30 mg/kg/day in diet, male Ldlr−/− mice), 28%; in data set [3] (MMF 100 mg/kg/day in diet, male Ldlr−/− mice) it was 64%. Also, in data set [3] (MMF 6, 15, 30 and 100 mg/kg/day, male Ldlr−/− mice), the “dose response of the reduction of atherosclerosis” value is on record as “dose-dependent”. In addition, the “effect on atherosclerosis / atheromatous plaques” value in data set [3] (MMF alone, doses lower than used for preventing organ rejection, Ldlr−/− mice) is recorded as “reduce atherosclerosis; also recorded: reduction of atheromatous plaques”. In addition, the “metabolism to the active metabolite MPA” value in data set [4] was “rapidly and completely metabolized”. The solubility in data set [5] (in 5% dextrose solution) was 65.8 mg/mL (≈ 152 mM). In data set [5] (water), the solubility in water entry is given as “insoluble”.
In the case of `COc1c(C)c2c(c(O)c1C/C=C(\C)CCC(=O)O)C(=O)OC2` [MPA, mycophenolic acid], the “ED50 for inhibiting the antibody reaction” value in data set [6] is “about 33 mg/kg/day”. Moreover, the “trend in aortic root lesions as a function of serum MPA levels (linear regression)” value in data set [3] (Ldlr−/− mice given MMF) is reported as “statistically significant decreasing trend”.
In the case of `CC[C@H](C)C(=O)O[C@H]1C[C@@H](C)C=C2C=C[C@H](C)[C@H](CC[C@@H]3C[C@@H](O)CC(=O)O3)[C@H]21` [lovastatin], in data set [7] (cholesterol clamped conditions), the “upregulation of eNOS expression” value was “almost fourfold”. Moreover, the “downregulation of eNOS by oxidized LDL” value in data set [7] was “completely prevent”.
